From ChEMBL document CHEMBL1127066, “Discovery and structure-activity relationship of a series of 1-carba-1-dethiacephems exhibiting activity against methicillin-resistant Staphylococcus aureus” (J Med Chem, 1993)

What was measured:
Type in all cases: functional
[1] = system: Pseudomonas aeruginosa; test: Antimicrobial activity against Pseudomonas PS18 strain
[2] = system: Staphylococcus epidermidis; test: In vitro antimicrobial activity against Staphylococcus epidermidis 222 strain
[3] = system: Streptococcus pneumoniae; test: In vitro antimicrobial activity against Streptococcus pneumoniae PARK strain
[4] = system: Staphylococcus aureus; test: In vitro antimicrobial activity against Staphylococcus aureus X1.1 strain
[5] = system: Staphylococcus aureus; test: In vitro antimicrobial activity against Staphylococcus aureus S13E strain
[6] = system: Staphylococcus aureus; test: In vitro antimicrobial activity against Staphylococcus aureus X400 strain
[7] = system: Haemophilus influenzae; test: In vitro antimicrobial activity against Haemophilus influenzae C.L. strain
[8] = system: Staphylococcus epidermidis; test: In vitro antimicrobial activity against Staphylococcus epidermidis 270 strain
[9] = system: Enterobacter cloacae; test: In vitro evaluation of antimicrobial activity against Enterobacter cloacae EB5 strain
[10] = system: Pseudomonas aeruginosa; test: In vitro antimicrobial activity against Pseudomonas X239 strain
[11] = system: Escherichia coli; test: In vitro evaluation of antimicrobial activity against Escherichia coli EC14 strain
[12] = system: Klebsiella; test: In vitro antimicrobial activity against Klebsiella X26 strain

COC(=O)c1sc(SC2=C(C(=O)[O-])N3C(=O)[C@@H](NC(=O)/C(=N/OCCF)c4csc(N)n4)[C@H]3CC2)nc1C.[Na+]
MIC [1]: > 128 µg/mL | MIC [2]: 2 µg/mL | MIC [3]: < 0.008 µg/mL | MIC [4]: 0.25 µg/mL | MIC [5]: 16 µg/mL | MIC [6]: 128 µg/mL | MIC [7]: 0.06 µg/mL | MIC [8]: 8 µg/mL | MIC [9]: 8 µg/mL | MIC [10]: > 128 µg/mL | MIC [11]: 2 µg/mL | MIC [12]: 0.125 µg/mL

Cc1nc(SC2=C(C(=O)[O-])N3C(=O)[C@@H](NC(=O)/C(=N/OCCF)c4csc(N)n4)[C@H]3CC2)sc1C.[Na+]
MIC [1]: 64 µg/mL | MIC [2]: 1 µg/mL | MIC [3]: < 0.008 µg/mL | MIC [4]: 0.5 µg/mL | MIC [5]: 4 µg/mL | MIC [6]: 32 µg/mL | MIC [7]: 0.015 µg/mL | MIC [8]: 2 µg/mL | MIC [9]: 4 µg/mL | MIC [10]: 8 µg/mL | MIC [11]: 0.5 µg/mL | MIC [12]: 0.06 µg/mL

Nc1nc(/C(=N\OCCF)C(=O)N[C@@H]2C(=O)N3C(C(=O)[O-])=C(Sc4nc5cc(Cl)ccc5s4)CC[C@H]23)cs1.[Na+]
MIC [1]: 64 µg/mL | MIC [2]: 0.5 µg/mL | MIC [3]: < 0.008 µg/mL | MIC [4]: 0.125 µg/mL | MIC [5]: 4 µg/mL | MIC [6]: 8 µg/mL | MIC [7]: 0.06 µg/mL | MIC [8]: 0.5 µg/mL | MIC [9]: 2 µg/mL | MIC [10]: > 128 µg/mL | MIC [11]: 0.25 µg/mL | MIC [12]: 0.06 µg/mL

Nc1nc(/C(=N\OCCF)C(=O)N[C@@H]2C(=O)N3C(C(=O)[O-])=C(Sc4ccncc4)CC[C@H]23)cs1.[Na+]
MIC [1]: 64 µg/mL | MIC [2]: 1 µg/mL | MIC [3]: < 0.008 µg/mL | MIC [4]: 0.5 µg/mL | MIC [5]: 32 µg/mL | MIC [6]: 64 µg/mL | MIC [7]: 0.015 µg/mL | MIC [8]: 2 µg/mL | MIC [9]: 0.5 µg/mL | MIC [10]: 16 µg/mL | MIC [11]: 0.06 µg/mL | MIC [12]: 0.015 µg/mL

Nc1nc(/C(=N\OCCF)C(=O)N[C@@H]2C(=O)N3C(C(=O)[O-])=C(Sc4nc5ccncc5s4)CC[C@H]23)cs1.[Na+]
MIC [1]: 64 µg/mL | MIC [2]: 0.5 µg/mL | MIC [3]: < 0.008 µg/mL | MIC [4]: 0.125 µg/mL | MIC [5]: 4 µg/mL | MIC [6]: 8 µg/mL | MIC [7]: 0.015 µg/mL | MIC [8]: 2 µg/mL | MIC [9]: 2 µg/mL | MIC [10]: > 128 µg/mL | MIC [11]: 0.25 µg/mL | MIC [12]: 0.06 µg/mL

Nc1nc(/C(=N\OCCF)C(=O)N[C@@H]2C(=O)N3C(C(=O)[O-])=C(Sc4snc5ccccc45)CC[C@H]23)cs1.[Na+]
MIC [1]: 16 µg/mL | MIC [2]: 0.5 µg/mL | MIC [3]: < 0.008 µg/mL | MIC [4]: 0.125 µg/mL | MIC [5]: 32 µg/mL | MIC [6]: 64 µg/mL | MIC [7]: 0.03 µg/mL | MIC [8]: 2 µg/mL | MIC [9]: 0.5 µg/mL | MIC [10]: 32 µg/mL | MIC [11]: 0.25 µg/mL | MIC [12]: 0.03 µg/mL

CCOc1nn(C)c(SC2=C(C(=O)[O-])N3C(=O)[C@@H](NC(=O)/C(=N/OCCF)c4csc(N)n4)[C@H]3CC2)nc1=O.[Na+]
MIC [1]: > 128 µg/mL | MIC [2]: 4 µg/mL | MIC [3]: 0.03 µg/mL | MIC [4]: 0.5 µg/mL | MIC [5]: 128 µg/mL | MIC [6]: > 128 µg/mL | MIC [7]: 0.03 µg/mL | MIC [8]: 16 µg/mL | MIC [9]: 2 µg/mL | MIC [10]: 128 µg/mL | MIC [11]: 0.5 µg/mL | MIC [12]: 0.06 µg/mL

Nc1nc(/C(=N\OCCF)C(=O)N[C@@H]2C(=O)N3C(C(=O)[O-])=C(Sc4ncccn4)CC[C@H]23)cs1.[Na+]
MIC [1]: > 128 µg/mL | MIC [2]: 4 µg/mL | MIC [3]: 0.03 µg/mL | MIC [4]: 2 µg/mL | MIC [5]: 32 µg/mL | MIC [6]: 128 µg/mL | MIC [7]: 0.03 µg/mL | MIC [8]: 8 µg/mL | MIC [9]: 1 µg/mL | MIC [10]: > 128 µg/mL | MIC [11]: 0.125 µg/mL | MIC [12]: 0.015 µg/mL

Nc1nc(/C(=N\OCCF)C(=O)N[C@@H]2C(=O)N3C(C(=O)[O-])=C(Sc4nc(-c5ccccn5)cs4)CC[C@H]23)cs1.[Na+]
MIC [1]: 64 µg/mL | MIC [2]: 0.5 µg/mL | MIC [3]: < 0.008 µg/mL | MIC [4]: 0.25 µg/mL | MIC [5]: 16 µg/mL | MIC [6]: 32 µg/mL | MIC [7]: 0.03 µg/mL | MIC [8]: 2 µg/mL | MIC [9]: 2 µg/mL | MIC [10]: 32 µg/mL | MIC [11]: 0.5 µg/mL | MIC [12]: 0.03 µg/mL

CCCCOC(=O)c1csc(SC2=C(C(=O)[O-])N3C(=O)[C@@H](NC(=O)/C(=N/OCCF)c4csc(N)n4)[C@H]3CC2)n1.[Na+]
MIC [1]: 128 µg/mL | MIC [2]: 1 µg/mL | MIC [3]: < 0.008 µg/mL | MIC [4]: 0.5 µg/mL | MIC [5]: 16 µg/mL | MIC [6]: 64 µg/mL | MIC [7]: 0.03 µg/mL | MIC [8]: 4 µg/mL | MIC [9]: 4 µg/mL | MIC [10]: > 128 µg/mL | MIC [11]: 0.5 µg/mL | MIC [12]: 0.03 µg/mL

Nc1ccc2nc(SC3=C(C(=O)[O-])N4C(=O)[C@@H](NC(=O)/C(=N/OCCF)c5csc(N)n5)[C@H]4CC3)sc2c1.[Na+]
MIC [1]: 128 µg/mL | MIC [2]: 1 µg/mL | MIC [3]: < 0.008 µg/mL | MIC [4]: 0.25 µg/mL | MIC [5]: 4 µg/mL | MIC [6]: 16 µg/mL | MIC [7]: 0.03 µg/mL | MIC [8]: 1 µg/mL | MIC [9]: 2 µg/mL | MIC [10]: > 128 µg/mL | MIC [11]: 0.25 µg/mL | MIC [12]: 0.03 µg/mL

Cc1cnc(SC2=C(C(=O)[O-])N3C(=O)[C@@H](NC(=O)/C(=N/OCCF)c4csc(N)n4)[C@H]3CC2)s1.[Na+]
MIC [1]: 32 µg/mL | MIC [2]: 1 µg/mL | MIC [3]: < 0.008 µg/mL | MIC [4]: 0.5 µg/mL | MIC [5]: 32 µg/mL | MIC [6]: 128 µg/mL | MIC [7]: < 0.008 µg/mL | MIC [8]: 4 µg/mL | MIC [9]: 2 µg/mL | MIC [10]: 64 µg/mL | MIC [11]: 0.5 µg/mL | MIC [12]: 0.03 µg/mL
